ChEMBL document CHEMBL1201862, “PubChem BioAssay data set” (2004)
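Growth conditions: 96-well plates. Treatment: test compound, 48 hours, 5 concentrations. Analysis: linear interpolation between bracketing concentrations; unreached endpoints set to highest concentration. GI50 is the concentration that inhibits growth by half.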 Active and inactive are the calls of the source. Rule as the data show it: active = GI50 up to about 1.1 µM and inactive = higher.

Assays:
Test in all cases: NCI-60 cell line screen, 48 h
786-0 = system: 786-0
A549 = system: A549
COLO 205 = system: COLO 205
HCC 2998 = system: HCC 2998
HCT-116 = system: HCT-116
HOP-62 = system: HOP-62
HOP-92 = system: HOP-92
HT-29 = system: HT-29
IGROV-1 = system: IGROV-1
MDA-MB-231 = system: MDA-MB-231
MDA-MB-435 = system: MDA-MB-435
MOLT-4 = system: MOLT-4
OVCAR-4 = system: OVCAR-4
SF-295 = system: SF-295
SF-539 = system: SF-539
SK-MEL-28 = system: SK-MEL-28
SK-MEL-2 = system: SK-MEL-2
SK-MEL-5 = system: SK-MEL-5
SNB-75 = system: SNB-75
UACC-257 = system: UACC-257

Row | Compound | GI50 (786-0) | GI50 (A549) | GI50 (COLO 205) | GI50 (HCC 2998) | GI50 (HCT-116) | GI50 (HOP-62) | GI50 (HOP-92) | GI50 (HT-29) | GI50 (IGROV-1) | GI50 (MDA-MB-231) | GI50 (MDA-MB-435) | GI50 (MOLT-4) | GI50 (OVCAR-4) | GI50 (SF-295) | GI50 (SF-539) | GI50 (SK-MEL-28) | GI50 (SK-MEL-2) | GI50 (SK-MEL-5) | GI50 (SNB-75) | GI50 (UACC-257)
1 | CCNc1cc2c3c(c1)CCN3CCC2 | > 10 µM (inactive) | > 10 µM (inactive) | > 10 µM (inactive) | > 10 µM (inactive) | > 10 µM (inactive) | > 10 µM (inactive) | > 10 µM (inactive) | > 10 µM (inactive) | > 10 µM (inactive) | > 10 µM (inactive) | > 10 µM (inactive) | > 10 µM (inactive) | > 10 µM (inactive) | > 10 µM (inactive) | > 10 µM (inactive) | > 10 µM (inactive) | > 10 µM (inactive) | > 10 µM (inactive) | > 10 µM (inactive) | > 10 µM (inactive)
2 | CC(C)OC(=S)Nc1ccc(Cl)c(/C=N/OC(C)(C)C)c1 | 16.7 µM (inactive) | 16.9 µM (inactive) | 17.1 µM (inactive) | 19.6 µM (inactive) | 15.4 µM (inactive) | 19.5 µM (inactive) | 12.2 µM (inactive) | 14.4 µM (inactive) | 17.5 µM (inactive) | 14.9 µM (inactive) | 18 µM (inactive) | 15.6 µM (inactive) | 18.1 µM (inactive) | 13.5 µM (inactive) | 15.5 µM (inactive) | 21.7 µM (inactive) | 18.5 µM (inactive) | 16.2 µM (inactive) | 23.5 µM (inactive) | 18.2 µM (inactive)
3 | S=C(N/N=C(/c1ccccc1)c1ccccn1)Nc1ccccc1Cl | < 0.018 µM (active) | 0.0946 µM (active) | < 0.01 µM (active) | 0.673 µM (active) | < 0.01 µM (active) | 1.77 µM (inactive) | 0.226 µM (active) | < 0.0227 µM (active) | < 0.0105 µM (active) | < 0.01 µM (active) | 0.265 µM (active) | < 0.01 µM (active) | 0.879 µM (active) | 0.356 µM (active) | 1.11 µM (active) | 1.92 µM (inactive) | 0.148 µM (active) | 0.121 µM (active) | 6.64 µM (inactive) | < 0.01 µM (active)
4 | CSc1c(C)[n+]([O-])c2cc(Cl)c(Cl)cc2[n+]1[O-] | 17.3 µM (inactive) | > 100 µM (inactive) | 15.5 µM (inactive) | 18.8 µM (inactive) | 16.4 µM (inactive) | 33.3 µM (inactive) | 16.2 µM (inactive) | 18.1 µM (inactive) | 14 µM (inactive) | 20.2 µM (inactive) | 18.5 µM (inactive) | 2.38 µM (inactive) | 16.4 µM (inactive) | > 56.8 µM (inactive) | 44.8 µM (inactive) | 19 µM (inactive) | 19.9 µM (inactive) | 17.7 µM (inactive) | > 47.1 µM (inactive) | 17.9 µM (inactive)
5 | COc1ccc(NC(/C(C(=O)c2ccccc2)=C(\O)C(=O)/C=C(\O)c2ccccc2)c2ccc(OC)cc2)cc1 (stereo not given) | 31 µM (inactive) | 28.6 µM (inactive) | 31 µM (inactive) | 26.6 µM (inactive) | 35.8 µM (inactive) | 52.4 µM (inactive) | 7.6 µM (inactive) | 45.8 µM (inactive) | 35 µM (inactive) | > 100 µM (inactive) | 20.6 µM (inactive) | 42.8 µM (inactive) | 30.5 µM (inactive) | 33 µM (inactive) | 38.8 µM (inactive) | 32.9 µM (inactive) | 23.6 µM (inactive) | 49.3 µM (inactive) | 17.8 µM (inactive) | 40.7 µM (inactive)
6 | NNC(=O)Cc1cccnc1 | > 100 µM (inactive) | > 100 µM (inactive) | > 100 µM (inactive) | > 100 µM (inactive) | > 100 µM (inactive) | > 100 µM (inactive) | > 100 µM (inactive) | > 100 µM (inactive) | > 100 µM (inactive) | > 100 µM (inactive) | > 100 µM (inactive) | > 100 µM (inactive) | > 100 µM (inactive) | > 100 µM (inactive) | > 100 µM (inactive) | > 100 µM (inactive) | > 100 µM (inactive) | > 100 µM (inactive) | > 100 µM (inactive) | > 100 µM (inactive)
7 | CCOP(=O)(OCC)/C(C#N)=C/c1cccn1N(C)C | > 100 µM (inactive) | > 100 µM (inactive) | > 100 µM (inactive) | > 100 µM (inactive) | 3.37 µM (inactive) | > 100 µM (inactive) | > 100 µM (inactive) | > 100 µM (inactive) | > 100 µM (inactive) | > 100 µM (inactive) | > 100 µM (inactive) | > 100 µM (inactive) | > 100 µM (inactive) | > 100 µM (inactive) | > 100 µM (inactive) | > 100 µM (inactive) | > 100 µM (inactive) | 51.6 µM (inactive) | > 100 µM (inactive) | > 100 µM (inactive)
8 | CC(=O)Oc1ccc2c(c1)c1c(=O)oc(N(C)C)nc1n2Cc1ccccc1 | 50.9 µM (inactive) | 48.4 µM (inactive) | > 56.4 µM (inactive) | > 100 µM (inactive) | 39.9 µM (inactive) | > 59.3 µM (inactive) | 19.5 µM (inactive) | 64 µM (inactive) | > 95.1 µM (inactive) | > 75.7 µM (inactive) | 46.2 µM (inactive) | 34 µM (inactive) | 57.9 µM (inactive) | 47.9 µM (inactive) | > 71.9 µM (inactive) | > 100 µM (inactive) | > 76.6 µM (inactive) | 42 µM (inactive) | > 60.3 µM (inactive) | > 86.5 µM (inactive)
9 | Cc1csc2c(P(=O)(OC(C)C)OC(C)C)c(-c3ccccc3)cn12 | 15.7 µM (inactive) | 16.6 µM (inactive) | 18.7 µM (inactive) | 14.6 µM (inactive) | 14.2 µM (inactive) | 18.2 µM (inactive) | 16.7 µM (inactive) | 15.6 µM (inactive) | 15.4 µM (inactive) | 17 µM (inactive) | 21.5 µM (inactive) | 13 µM (inactive) | 17.5 µM (inactive) | 16.9 µM (inactive) | 18.3 µM (inactive) | 17.7 µM (inactive) | 16 µM (inactive) | 16.2 µM (inactive) | 14.5 µM (inactive) | 14 µM (inactive)
10 | CC(=O)C(=Cc1ccc(C=C(C(C)=O)C(C)=O)cc1)C(C)=O | 2.17 µM (inactive) | 2.93 µM (inactive) | 1.7 µM (inactive) | 4.81 µM (inactive) | 0.637 µM (active) | 2.08 µM (inactive) | 2.12 µM (inactive) | 1.2 µM (inactive) | 2.02 µM (inactive) | 1.97 µM (inactive) | 1.63 µM (inactive) | 0.244 µM (active) | 1.9 µM (inactive) | 2.11 µM (inactive) | 2.1 µM (inactive) | 1.71 µM (inactive) | 2.39 µM (inactive) | 1.9 µM (inactive) | 1.78 µM (inactive) | 1.92 µM (inactive)
